One block for each compound: values may come before it. The source made the active and inactive calls. The calls are words filed in the database; no cut-off is given here.
Tests used:
[1] = system: MV4-11; test: Antiproliferative activity against human MV4-11 cells incubated for 48 hrs by CCK-8 assay; assay type: functional, cell-based; conditions: MV4-11, 48 h
[2] = system: MOLM-13; test: Antiproliferative activity against human MOLM-13 cells incubated for 48 hrs by CCK-8 assay; assay type: functional, cell-based; conditions: MOLM-13, 48 h
[3] = target: Mast/stem cell growth factor receptor Kit (Homo sapiens) (UniProt P10721); test: Induction of KIT degradation in human MOLM-13 cells at 0 to 25 nM after 24 hrs by Western blot analysis; assay type: cell-based; conditions: dose 0-25 nM
Mast/stem cell growth factor receptor Kit (Homo sapiens), sequence (P10721 whole entry): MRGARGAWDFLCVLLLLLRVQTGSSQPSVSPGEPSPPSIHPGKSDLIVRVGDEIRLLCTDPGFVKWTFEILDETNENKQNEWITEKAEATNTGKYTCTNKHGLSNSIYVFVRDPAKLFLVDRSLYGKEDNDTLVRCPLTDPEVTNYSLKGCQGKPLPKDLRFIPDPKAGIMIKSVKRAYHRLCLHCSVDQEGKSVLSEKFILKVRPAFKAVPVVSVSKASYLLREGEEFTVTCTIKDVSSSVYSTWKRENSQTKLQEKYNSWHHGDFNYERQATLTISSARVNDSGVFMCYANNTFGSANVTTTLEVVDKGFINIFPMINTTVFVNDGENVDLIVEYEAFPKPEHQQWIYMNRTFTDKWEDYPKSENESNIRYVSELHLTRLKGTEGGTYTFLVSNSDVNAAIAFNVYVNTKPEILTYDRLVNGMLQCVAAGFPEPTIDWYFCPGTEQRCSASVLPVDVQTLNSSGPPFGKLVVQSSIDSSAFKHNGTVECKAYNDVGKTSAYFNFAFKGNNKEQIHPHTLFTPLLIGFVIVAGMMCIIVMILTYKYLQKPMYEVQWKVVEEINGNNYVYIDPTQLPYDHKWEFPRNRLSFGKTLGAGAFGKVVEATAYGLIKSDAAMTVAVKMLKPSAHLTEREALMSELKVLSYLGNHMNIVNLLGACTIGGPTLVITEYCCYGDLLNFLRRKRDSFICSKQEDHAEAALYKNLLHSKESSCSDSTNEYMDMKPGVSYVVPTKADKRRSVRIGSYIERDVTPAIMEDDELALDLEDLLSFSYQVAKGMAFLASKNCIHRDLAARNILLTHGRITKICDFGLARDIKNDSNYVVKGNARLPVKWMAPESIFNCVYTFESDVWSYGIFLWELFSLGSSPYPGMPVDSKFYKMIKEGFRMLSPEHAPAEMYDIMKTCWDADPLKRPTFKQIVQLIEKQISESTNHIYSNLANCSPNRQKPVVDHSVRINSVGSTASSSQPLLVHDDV

[4] = system: MV4-11; test: Induction of apoptosis in human MV4-11 cells assessed as downregulation of Mcl-1 level at 15 nM measured upto 12 hrs by Western blot analysis; assay type: functional, cell-based; conditions: time hrs <=12
[5] = system: MOLM-13; test: Induction of apoptosis in human MOLM-13 cells assessed as upregulation of cleaved caspase-3 level at 15 nM by Western blot analysis; assay type: functional, cell-based; conditions: time 0-12 hrs, TDE = time-dependent effect
[6] = target: Receptor-type tyrosine-protein kinase FLT3 (Homo sapiens) (UniProt P36888); test: Inhibition of FLT3 in human MOLM-13 cells assessed as reduction in ERK phosphorylation at 15 nM by Western blot analysis; assay type: cell-based; conditions: time 0-12 hrs, TDE = time-dependent effect
Receptor-type tyrosine-protein kinase FLT3 (Homo sapiens), sequence (P36888 whole entry): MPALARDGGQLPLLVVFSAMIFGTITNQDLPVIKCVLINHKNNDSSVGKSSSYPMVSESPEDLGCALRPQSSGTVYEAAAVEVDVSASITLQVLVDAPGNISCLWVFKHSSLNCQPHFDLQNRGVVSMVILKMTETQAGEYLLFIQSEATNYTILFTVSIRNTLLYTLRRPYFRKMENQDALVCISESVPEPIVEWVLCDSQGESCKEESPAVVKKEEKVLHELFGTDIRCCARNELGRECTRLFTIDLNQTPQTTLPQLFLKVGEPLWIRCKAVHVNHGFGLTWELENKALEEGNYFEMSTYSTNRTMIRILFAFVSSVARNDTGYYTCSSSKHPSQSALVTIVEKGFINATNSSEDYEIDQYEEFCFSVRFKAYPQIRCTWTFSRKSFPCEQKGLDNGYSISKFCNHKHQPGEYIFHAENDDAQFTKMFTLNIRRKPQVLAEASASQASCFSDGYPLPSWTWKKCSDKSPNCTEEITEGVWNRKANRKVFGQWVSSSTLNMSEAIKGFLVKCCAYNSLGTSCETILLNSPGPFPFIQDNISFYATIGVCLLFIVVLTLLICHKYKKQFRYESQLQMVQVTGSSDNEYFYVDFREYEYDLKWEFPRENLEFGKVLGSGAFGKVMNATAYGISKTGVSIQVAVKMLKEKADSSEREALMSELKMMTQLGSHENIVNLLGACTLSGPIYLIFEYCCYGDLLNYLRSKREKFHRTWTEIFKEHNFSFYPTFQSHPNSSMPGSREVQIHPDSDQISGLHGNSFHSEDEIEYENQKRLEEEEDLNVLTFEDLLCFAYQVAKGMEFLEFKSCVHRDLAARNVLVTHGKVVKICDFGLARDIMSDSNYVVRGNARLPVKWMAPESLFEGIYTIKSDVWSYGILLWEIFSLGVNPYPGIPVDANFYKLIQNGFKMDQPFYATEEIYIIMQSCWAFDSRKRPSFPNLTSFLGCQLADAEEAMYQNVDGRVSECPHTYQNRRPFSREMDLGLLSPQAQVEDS

[7] = system: Receptor-type tyrosine-protein kinase FLT3 (Homo sapiens), P36888 [UNDEFINED MUTATION]; test: Induction of FLT3-ITD degradation in human MV4-11 cells at 20 nM pretreated with MG132 for 2 hrs followed compound addition for 6 hrs by Western blot analysis; assay type: cell-based
Receptor-type tyrosine-protein kinase FLT3 (Homo sapiens), P36888 [UNDEFINED MUTATION], sequence (P36888 whole entry, looked up, change not shown): as the sequence (P36888 whole entry) above

[8] = target: Platelet-derived growth factor receptor beta (Homo sapiens) (UniProt P09619); test: Induction of PDGFR degradation in human MV4-11 cells at 0 to 25 nM after 24 hrs by Western blot analysis; assay type: cell-based; conditions: dose 0-25 nM
Platelet-derived growth factor receptor beta (Homo sapiens), sequence (P09619 whole entry): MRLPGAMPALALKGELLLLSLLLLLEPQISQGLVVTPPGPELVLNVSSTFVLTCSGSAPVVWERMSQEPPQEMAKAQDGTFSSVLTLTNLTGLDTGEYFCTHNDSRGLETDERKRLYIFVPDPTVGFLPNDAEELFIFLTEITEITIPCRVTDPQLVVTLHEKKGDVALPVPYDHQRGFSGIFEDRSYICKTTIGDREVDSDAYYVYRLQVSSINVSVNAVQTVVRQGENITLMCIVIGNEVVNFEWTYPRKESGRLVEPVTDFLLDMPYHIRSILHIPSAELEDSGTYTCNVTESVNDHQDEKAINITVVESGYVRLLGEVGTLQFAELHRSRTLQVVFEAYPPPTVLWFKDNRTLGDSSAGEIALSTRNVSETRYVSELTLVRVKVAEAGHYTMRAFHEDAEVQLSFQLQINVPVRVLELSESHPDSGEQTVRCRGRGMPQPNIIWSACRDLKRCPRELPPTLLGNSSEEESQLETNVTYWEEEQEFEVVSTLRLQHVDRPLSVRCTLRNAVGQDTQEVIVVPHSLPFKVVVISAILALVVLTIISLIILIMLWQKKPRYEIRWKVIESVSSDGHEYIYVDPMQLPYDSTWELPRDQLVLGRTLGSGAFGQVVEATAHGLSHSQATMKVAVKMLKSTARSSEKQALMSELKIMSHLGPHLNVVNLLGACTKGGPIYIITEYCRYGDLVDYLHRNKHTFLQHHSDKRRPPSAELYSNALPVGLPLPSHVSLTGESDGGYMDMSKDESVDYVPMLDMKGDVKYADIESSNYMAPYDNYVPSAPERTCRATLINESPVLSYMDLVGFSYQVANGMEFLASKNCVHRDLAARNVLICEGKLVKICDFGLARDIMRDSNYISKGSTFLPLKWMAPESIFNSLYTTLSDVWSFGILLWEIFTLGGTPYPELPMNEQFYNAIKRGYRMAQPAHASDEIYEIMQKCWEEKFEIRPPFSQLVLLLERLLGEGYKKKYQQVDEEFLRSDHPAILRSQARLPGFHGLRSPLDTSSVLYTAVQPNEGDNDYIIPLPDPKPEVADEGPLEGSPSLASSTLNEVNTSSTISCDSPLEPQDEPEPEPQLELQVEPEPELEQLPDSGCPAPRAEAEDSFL

[9] = target: Mast/stem cell growth factor receptor Kit (Homo sapiens) (UniProt P10721); test: Induction of KIT degradation in human MV4-11 cells at 0 to 25 nM after 24 hrs by Western blot analysis; assay type: cell-based; conditions: dose 0-25 nM
[10] = target: Receptor-type tyrosine-protein kinase FLT3 (Homo sapiens) (UniProt P36888); test: Inhibition of FLT3 in human MOLM-13 cells assessed as reduction in FLT3 phosphorylation at 15 nM by Western blot analysis; assay type: cell-based; conditions: time 0-12 hrs, TDE = time-dependent effect
[11] = system: Receptor-type tyrosine-protein kinase FLT3 (Homo sapiens), P36888 [UNDEFINED MUTATION]; test: Induction of FLT3-ITD degradation in human MV4-11 cells assessed as accumulation of ubiquitinated FLT3-ITD at 15 nM preincubated for 4 hrs followed by MG132 addition for 2 hrs by immunoprecipitation assay; assay type: cell-based; conditions: time 6.0 hrs
[12] = system: MOLM-13; test: Induction of apoptosis in human MOLM-13 cells after 48 hrs by Annexin-V/PI staining based flow cytometry; assay type: functional, cell-based; conditions: dose 1.25-10 nM
[13] = Toxicity in NOD/SCID mouse xenografted with human MV4-11 cells assessed as effect on body weight at 3 mg/kg/day, iv administered for 12 hrs; assay type: organism-based; conditions: in vivo
[14] = system: MV4-11; test: Antitumor activity against human MV4-11 cells xenografted in NOD/SCID mouse assessed as reduction in CD45-positive cells in bone marrow at 3 mg/kg/day, iv administered for 12 days by flow cytometry analysis (reference value: 32.23 %); assay type: functional; set-up: scale not given: the % may be the effect or the level left; conditions: time 12 day
[15] = target: Receptor-type tyrosine-protein kinase FLT3 (Homo sapiens) (UniProt P36888); test: Inhibition of FLT3 in human MV4-11 cells assessed as reduction in ERK phosphorylation at 15 nM by Western blot analysis; assay type: cell-based; conditions: time 0-12 hrs, TDE = time-dependent effect
[16] = system: Receptor-type tyrosine-protein kinase FLT3 (Homo sapiens), P36888 [UNDEFINED MUTATION]; test: Induction of FLT3-ITD degradation in human MV4-11 cells at 20 nM pretreated with dov for 2 hrs followed compound addition for 6 hrs by Western blot analysis; assay type: cell-based
[17] = target: Receptor-type tyrosine-protein kinase FLT3 (Homo sapiens) (UniProt P36888); test: Inhibition of FLT3 in human MOLM-13 cells assessed as reduction in AKT phosphorylation at 15 nM by Western blot analysis; assay type: cell-based; conditions: time 0-12 hrs, TDE = time-dependent effect
[18] = system: Receptor-type tyrosine-protein kinase FLT3 (Homo sapiens), P36888 [UNDEFINED MUTATION]; test: Induction of FLT3-ITD degradation in human MV4-11 cells after 24 hrs by Western blot analysis; assay type: cell-based
[19] = target: Mast/stem cell growth factor receptor Kit (Homo sapiens) (UniProt P10721); test: Inhibition of KIT in human MV4-11 cells assessed as reduction in STAT3 phosphorylation at 5 to 25 nM after 24 hrs by Western blot analysis; assay type: cell-based; conditions: dose 5-25 nM
[20] = system: MOLM-13; test: Reduction in intracellular ROS level in human MOLM-13 cells measured after 12 hrs by DCFH-DA probe based flow cytometry; assay type: functional, cell-based; conditions: dose 25-200 nM
[21] = target: Mast/stem cell growth factor receptor Kit (Homo sapiens) (UniProt P10721); test: Inhibition of KIT in human MOLM-13 cells assessed as reduction in PI3K phosphorylation at 5 to 25 nM after 24 hrs by Western blot analysis; assay type: cell-based; conditions: dose 5-25 nM
[22] = target: Receptor-type tyrosine-protein kinase FLT3 (Homo sapiens) (UniProt P36888); test: Inhibition of FLT3 in human MV4-11 cells assessed as reduction in STAT5 phosphorylation at 15 nM by Western blot analysis; assay type: cell-based; conditions: time 0-12 hrs, TDE = time-dependent effect
[23] = system: Receptor-type tyrosine-protein kinase FLT3 (Homo sapiens), P36888 [UNDEFINED MUTATION]; test: Induction of FLT3-ITD degradation in human MV4-11 cells at 20 nM pretreated with pomalidomide for 2 hrs followed compound addition for 6 hrs by Western blot analysis; assay type: cell-based
[24] = target: Platelet-derived growth factor receptor beta (Homo sapiens) (UniProt P09619); test: Induction of PDGFR degradation in human MOLM-13 cells at 0 to 25 nM after 24 hrs by Western blot analysis; assay type: cell-based; conditions: dose 0-25 nM
[25] = target: Mast/stem cell growth factor receptor Kit (Homo sapiens) (UniProt P10721); test: Inhibition of KIT in human MOLM-13 cells assessed as reduction in STAT3 phosphorylation at 5 to 25 nM after 24 hrs by Western blot analysis; assay type: cell-based; conditions: dose 5-25 nM
[26] = system: MOLM-13; test: Induction of apoptosis in human MOLM-13 cells assessed as downregulation of Bcl-2 level at 15 nM measured upto 12 hrs by Western blot analysis; assay type: functional, cell-based; conditions: time hrs <=12
[27] = system: Receptor-type tyrosine-protein kinase FLT3 (Homo sapiens), P36888 [UNDEFINED MUTATION]; test: Induction of FLT3-ITD degradation in human MOLM-13 cells after 24 hrs by Western blot analysis; assay type: cell-based
[28] = system: MV4-11; test: Reduction in intracellular ROS level in human MV4-11 cells measured after 12 hrs by DCFH-DA probe based flow cytometry; assay type: functional, cell-based; conditions: dose 25-200 nM
[29] = system: MV4-11; test: Induction of apoptosis in human MV4-11 cells assessed as downregulation of Bcl-2 level at 15 nM measured upto 12 hrs by Western blot analysis; assay type: functional, cell-based; conditions: time hrs <=12
[30] = target: Receptor-type tyrosine-protein kinase FLT3 (Homo sapiens) (UniProt P36888); test: Inhibition of FLT3 in human MOLM-13 cells assessed as reduction in STAT5 phosphorylation at 15 nM by Western blot analysis; assay type: cell-based; conditions: time 0-12 hrs, TDE = time-dependent effect
[31] = system: MOLM-13; test: Induction of apoptosis in human MOLM-13 cells assessed as downregulation of Mcl-1 level at 15 nM measured upto 12 hrs by Western blot analysis; assay type: functional, cell-based; conditions: time hrs <=12
[32] = target: Receptor-type tyrosine-protein kinase FLT3 (Homo sapiens) (UniProt P36888); test: Inhibition of FLT3 in human MV4-11 cells assessed as reduction in FLT3 phosphorylation at 15 nM by Western blot analysis; assay type: cell-based; conditions: time 0-12 hrs, TDE = time-dependent effect
[33] = system: MV4-11; test: Induction of apoptosis in human MV4-11 cells assessed as upregulation of cleaved caspase-3 level at 15 nM by Western blot analysis; assay type: functional, cell-based; conditions: time 0-12 hrs, TDE = time-dependent effect
[34] = target: Receptor-type tyrosine-protein kinase FLT3 (Homo sapiens) (UniProt P36888); test: Inhibition of FLT3 in human MV4-11 cells assessed as reduction in AKT phosphorylation at 15 nM by Western blot analysis; assay type: cell-based; conditions: time 0-12 hrs, TDE = time-dependent effect
[35] = target: Mast/stem cell growth factor receptor Kit (Homo sapiens) (UniProt P10721); test: Inhibition of KIT in human MV4-11 cells assessed as reduction in PI3K phosphorylation at 5 to 25 nM after 24 hrs by Western blot analysis; assay type: cell-based; conditions: dose 5-25 nM
[36] = system: MV4-11; test: Induction of apoptosis in human MV4-11 cells after 48 hrs by Annexin-V/PI staining based flow cytometry; assay type: functional, cell-based; conditions: dose 1.25-10 nM

IC50 [1]: > 1000 nM
IC50 [2]: > 1000 nM
SMILES: Nc1c(-c2nc3cc(N4CCN(CCCCCCCC(=O)Nc5cccc6c5C(=O)N(C5CCC(=O)NC5=O)C6=O)CC4)ccc3[nH]2)c(=O)[nH]c2cccc(F)c12 (stereo not given)

IC50 [1]: 635 nM
IC50 [2]: 306 nM
SMILES: Nc1c(-c2nc3cc(N4CCN(C(=O)CCCCC#Cc5cccc6c5C(=O)N(C5CCC(=O)NC5=O)C6=O)CC4)ccc3[nH]2)c(=O)[nH]c2cccc(F)c12 (stereo not given)

IC50 [1]: > 1000 nM
IC50 [2]: > 1000 nM
SMILES: Nc1c(-c2nc3cc(N4CCN(CCCCCC(=O)Nc5cccc6c5CN(C5CCC(=O)NC5=O)C6=O)CC4)ccc3[nH]2)c(=O)[nH]c2cccc(F)c12 (stereo not given)

Activity [3]: Active
inhibition [6]: Tde
Activity [7]: inactive
Activity [8]: Active
Activity [9]: Active
inhibition [10]: Tde
Activity [11]: Active
inhibition [15]: Tde
IC50 [1]: 18.7 nM
Activity [16]: inactive
inhibition [17]: Tde
IC50 [2]: 10.1 nM
Activity [18]: Dose-Dependent Effect
inhibition [19]: Active
inhibition [21]: Active
inhibition [22]: Tde
Activity [23]: inactive
Activity [24]: Active
inhibition [25]: Active
Activity [27]: Dose-Dependent Effect
inhibition [30]: Tde
inhibition [32]: Tde
inhibition [34]: Tde
inhibition [35]: Active
SMILES: Nc1c(-c2nc3cc(N4CCN(C(=O)CCCCNc5cccc6c5C(=O)N(C5CCC(=O)NC5=O)C6=O)CC4)ccc3[nH]2)c(=O)[nH]c2cccc(F)c12 (stereo not given)
Activity [4]: Active
Activity [5]: Tde
Activity [12]: Dose-Dependent Effect
Activity [13]: Non-Toxic
Activity [14]: 5.25%
Activity [20]: Dose-Dependent Effect
Activity [26]: Active
Activity [28]: Dose-Dependent Effect
Activity [29]: Active
Activity [31]: Active
Activity [33]: Tde
Activity [36]: Dose-Dependent Effect

IC50 [1]: 929 nM
IC50 [2]: > 1000 nM
SMILES: Nc1c(-c2nc3cc(N4CCN(C(=O)CCC#Cc5cccc6c5C(=O)N(C5CCC(=O)NC5=O)C6=O)CC4)ccc3[nH]2)c(=O)[nH]c2cccc(F)c12 (stereo not given)

IC50 [1]: 726 nM
IC50 [2]: > 1000 nM
SMILES: Nc1c(-c2nc3cc(N4CCN(CCCCC(=O)Nc5cccc6c5C(=O)N(C5CCC(=O)NC5=O)C6=O)CC4)ccc3[nH]2)c(=O)[nH]c2cccc(F)c12 (stereo not given)

IC50 [1]: 418 nM
IC50 [2]: > 1000 nM
SMILES: Nc1c(-c2nc3cc(N4CCN(CCCCCCC(=O)Nc5cccc6c5C(=O)N(C5CCC(=O)NC5=O)C6=O)CC4)ccc3[nH]2)c(=O)[nH]c2cccc(F)c12 (stereo not given)

IC50 [1]: 739 nM
IC50 [2]: 419 nM
SMILES: Nc1c(-c2nc3cc(N4CCN(CCCC(=O)Nc5cccc6c5C(=O)N(C5CCC(=O)NC5=O)C6=O)CC4)ccc3[nH]2)c(=O)[nH]c2cccc(F)c12 (stereo not given)

From ChEMBL document CHEMBL4840352 (J Med Chem, 2021)
